In the supplement of paper PMC10307832:

What was measured:
Assay in all cases: relative viability (nuclei count vs DMSO), 5 days (fraction); higher = more cells survive
[1] = compound: C1CNCCC1C2=CC(=NN2)C3=CC=NC=C3 + CC(=O)Nc1cccc(-n2c(=O)n(C3CC3)c(=O)c3c(Nc4ccc(I)cc4F)n(C)c(=O)c(C)c32)c1 [Trametinib] (partner 0.02 µM)
Summary of the method: (§1)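 After 5 days of treatment, lung cancer cells in 1536-well plates were fixed and stained in a single step (final 0.05% Triton X-100, 1% formaldehyde, 1 ug/ml Hoechst) and their nuclei counted on 4× images. Treatment had been applied by pin tool the day after seeding as one drug alone or as a fixed anchor-drug dose with five library-drug doses (not always all listed) in √10 steps. Relative viability is the nuclei count of treated wells divided by that of vehicle wells, and values are medians of duplicate plates.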

[2] = compound: C1CNCCC1C2=CC(=NN2)C3=CC=NC=C3 + Nc1nc2[nH]cc(CCc3ccc(C(=O)N[C@@H](CCC(=O)O)C(=O)O)cc3)c2c(=O)[nH]1 [Pemetrexed] (partner 0.2 µM)
Summary of the method: as §1

[3] = compound: C[C@@H](N)c1ccc(C(=O)Nc2ccnc3[nH]ccc23)cc1 + CCNC(=O)c1noc(-c2cc(C(C)C)c(O)cc2O)c1-c1ccc(CN2CCOCC2)cc1 [Luminespib] (partner 0.01 µM)
Summary of the method: as §1

[4] = compound: C[C@@H](N)c1ccc(C(=O)Nc2ccnc3[nH]ccc23)cc1 + NC(=O)Nc1cc(-c2cccc(F)c2)sc1C(=O)N[C@H]1CCCNC1 [AZD7762] (partner 0.2 µM)
Summary of the method: as §1

Cell Line	relative viability ([1]; first compound 0.08 µM)	relative viability ([1]; first compound 0.8 µM)	relative viability ([1]; first compound 2.53 µM)	relative viability ([1]; first compound 8 µM)	relative viability ([2]; first compound 0.08 µM)	relative viability ([2]; first compound 0.8 µM)	relative viability ([2]; first compound 2.53 µM)	relative viability ([2]; first compound 8 µM)	relative viability ([3]; first compound 0.04 µM)	relative viability ([3]; first compound 0.1265 µM)	relative viability ([3]; first compound 0.4 µM)	relative viability ([3]; first compound 1.265 µM)	relative viability ([3]; first compound 4 µM)	relative viability ([4]; first compound 0.04 µM)	relative viability ([4]; first compound 0.1265 µM)	relative viability ([4]; first compound 0.4 µM)	relative viability ([4]; first compound 1.265 µM)	relative viability ([4]; first compound 4 µM)
RERF-LC-KJ	0.837	0.83	0.966	0.858	0.464	0.493	0.516	0.463	1.22	1.3	1.26	1.2	1.25	1.08	1.04	1.33	1.08	1.18
LCLC-103H	0.689	0.724	0.67	0.674	0.492	0.5	0.493	0.487	1.15	0.914	0.956	0.911	0.69	0.709	0.77	0.757	0.658	0.522
HCC-15	0.421	0.387	0.391	0.4	0.221	0.229	0.234	0.211	0.391	0.329	0.291		0.153	1.19	1.23	1.4	1.18	1.28
H3255	0.532		0.689	0.736	0.578	0.629	0.638	0.623	0.778	1.04	1	0.763	0.944	0.929	1.07	1.11	1.07	0.724
NCI-H1792	0.428	0.487	0.539	0.438	0.909	0.73	0.831	0.849	0.407		0.568	0.45	0.448	0.564	0.534	0.69	0.72	0.578
NCI-H1563					0.818	0.662	0.961	0.904	0.514	0.484	0.499	0.508	0.514					
NCI-H596	0.777	0.808	0.819	0.834	0.483	0.476	0.525	0.478	1.33	0.912	0.98		0.975	1.02	1.1	0.828	1.01	1.04
NCI-H2087	0.216	0.226	0.181	0.291	0.722	0.679	0.635	0.666	0.152	0.153	0.126		0.174	1.29	1.06	1.07	1.06	1.08
NCI-H661	0.568	0.561	0.586	0.596	0.967	0.942	0.939	0.891	0.921	0.923	0.873	0.781	0.811					
NCI-H522	0.764	0.716	0.918	0.744	0.844	1.13	0.934	1.26	1.34	1.06	1.59	1.02	0.885	0.833	0.759	0.979	0.971	0.813
EMC-BAC-2		0.946	0.994	0.991	0.464	0.448	0.435	0.439	1.15	1.22	1.25	1.09	1.04	0.946	1.09	1.17	1.03	0.895
NCI-H1355	0.419	0.442	0.466	0.406	1.09	1.08	1.07	1.02	0.759	0.72	0.807	0.66	0.625	0.761	0.819	0.901	0.91	0.871
COR-L23	0.583	0.62	0.678	0.608	0.192	0.212	0.193	0.192	0.788	0.804	0.644	0.437	0.161					
HCC-78	0.742		0.821	0.757	0.901		0.925	0.885						0.798	0.624	0.788	0.856	0.477
SW 1573		0.6	0.556	0.622		0.881	0.912	0.992	0.311	0.37	0.212	0.304	0.249					
SK-MES-1	0.553	0.549	0.542	0.578	0.985	0.9	0.989	0.94	0.834	0.796	0.752	0.585	0.714					
NCI-H1648	0.464	0.483		0.516	0.671	0.57		0.828						0.951	1.01	0.924	1.61	1.35
NCI-H2023	0.418	0.627	0.645	0.494	0.206	0.222	0.224	0.241	1	0.881	0.832	0.689	0.543					
NCI-H2009	0.248	0.257	0.376	0.298	0.958	1.05	0.992	1.03	0.966	0.957	0.952	0.836	0.815					
NCI-H2228	0.56	0.37	0.696	0.7	0.31	0.373	0.384	0.356	0.069	0.147	0.116	0.122	0.178					
ABC-1									1	0.678	0.529	0.553	0.811		0.861	0.808		0.554
NCI-H520	0.609	0.776	0.666	0.725	0.652	0.743	0.637	0.517	0.192	0.188	0.24	0.218	0.213					
NCI-H1703															0.125	0.131		0.105
